Results reported in ChEMBL document CHEMBL1201862, “PubChem BioAssay data set” (2004).
The source made the active and inactive calls.

Key:
[1] = target: T1, Sentrin-specific protease 8 (Homo sapiens, UniProt Q96LD8); assay type: functional;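 note: luminescence read-out of SENP8 inhibition, dose-response confirmation following an ultra-high-throughput screen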
T1 sequence (Q96LD8 whole entry): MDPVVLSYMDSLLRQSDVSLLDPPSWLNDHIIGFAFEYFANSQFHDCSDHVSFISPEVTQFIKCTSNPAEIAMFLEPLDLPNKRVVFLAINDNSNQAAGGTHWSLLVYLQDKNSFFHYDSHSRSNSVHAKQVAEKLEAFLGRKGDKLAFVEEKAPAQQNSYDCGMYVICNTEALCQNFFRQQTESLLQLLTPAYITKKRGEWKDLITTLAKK

Caspase-3 = target: T2, Caspase-3 (Homo sapiens, UniProt P42574); assay type: functional;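 note: Dose-response selectivity test against caspase-3 for candidate inhibitors of sentrin-specific proteases (SENPs)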
T2 sequence (P42574 whole entry): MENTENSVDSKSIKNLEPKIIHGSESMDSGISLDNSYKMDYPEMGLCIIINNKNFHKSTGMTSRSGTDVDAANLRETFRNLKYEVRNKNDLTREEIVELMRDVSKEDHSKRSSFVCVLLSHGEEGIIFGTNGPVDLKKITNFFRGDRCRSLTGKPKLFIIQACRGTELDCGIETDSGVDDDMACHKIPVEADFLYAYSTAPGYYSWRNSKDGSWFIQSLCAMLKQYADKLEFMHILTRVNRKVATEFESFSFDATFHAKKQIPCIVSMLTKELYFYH

[2] = target: T3, Sentrin-specific protease 7 (Homo sapiens, UniProt Q9BQF6); assay type: functional;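 note: Luminescence-based dose-response confirmation of ultra-high-throughput screening hits, measuring inhibition of SENP7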
T3 sequence (Q9BQF6 whole entry): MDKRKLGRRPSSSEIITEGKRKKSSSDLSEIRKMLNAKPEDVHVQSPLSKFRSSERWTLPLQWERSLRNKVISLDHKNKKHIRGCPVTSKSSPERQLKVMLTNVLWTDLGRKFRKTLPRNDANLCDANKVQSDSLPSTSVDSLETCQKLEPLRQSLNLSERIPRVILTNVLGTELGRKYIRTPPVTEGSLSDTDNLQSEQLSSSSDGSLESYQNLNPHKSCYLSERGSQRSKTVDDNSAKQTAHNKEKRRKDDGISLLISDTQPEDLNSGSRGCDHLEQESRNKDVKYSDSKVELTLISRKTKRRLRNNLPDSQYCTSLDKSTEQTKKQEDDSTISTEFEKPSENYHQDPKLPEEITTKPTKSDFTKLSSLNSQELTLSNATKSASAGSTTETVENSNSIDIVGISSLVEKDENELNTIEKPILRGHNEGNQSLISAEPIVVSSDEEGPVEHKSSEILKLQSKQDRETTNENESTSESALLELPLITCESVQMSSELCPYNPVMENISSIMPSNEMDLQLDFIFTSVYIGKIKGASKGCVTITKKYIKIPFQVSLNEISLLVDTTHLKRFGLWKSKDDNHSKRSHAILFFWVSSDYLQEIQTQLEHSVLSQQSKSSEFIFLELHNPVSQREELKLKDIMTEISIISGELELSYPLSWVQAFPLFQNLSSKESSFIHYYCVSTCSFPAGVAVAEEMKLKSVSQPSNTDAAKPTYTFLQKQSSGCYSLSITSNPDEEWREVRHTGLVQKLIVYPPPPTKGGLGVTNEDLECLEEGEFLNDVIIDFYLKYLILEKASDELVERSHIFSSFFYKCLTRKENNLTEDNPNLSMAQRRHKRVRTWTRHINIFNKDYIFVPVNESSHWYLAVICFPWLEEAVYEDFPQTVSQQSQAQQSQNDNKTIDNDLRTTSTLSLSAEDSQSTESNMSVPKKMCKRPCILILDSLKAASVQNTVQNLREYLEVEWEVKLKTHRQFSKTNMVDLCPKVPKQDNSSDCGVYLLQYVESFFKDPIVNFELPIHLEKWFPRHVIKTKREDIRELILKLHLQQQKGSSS

[3] = target: T4, Sentrin-specific protease 6 (Homo sapiens, UniProt Q9GZR1); assay type: functional;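 note: Luminescence-based dose-response confirmatory assay of SENP6 inhibition, following up an ultra-high-throughput screen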
T4 sequence (Q9GZR1 whole entry): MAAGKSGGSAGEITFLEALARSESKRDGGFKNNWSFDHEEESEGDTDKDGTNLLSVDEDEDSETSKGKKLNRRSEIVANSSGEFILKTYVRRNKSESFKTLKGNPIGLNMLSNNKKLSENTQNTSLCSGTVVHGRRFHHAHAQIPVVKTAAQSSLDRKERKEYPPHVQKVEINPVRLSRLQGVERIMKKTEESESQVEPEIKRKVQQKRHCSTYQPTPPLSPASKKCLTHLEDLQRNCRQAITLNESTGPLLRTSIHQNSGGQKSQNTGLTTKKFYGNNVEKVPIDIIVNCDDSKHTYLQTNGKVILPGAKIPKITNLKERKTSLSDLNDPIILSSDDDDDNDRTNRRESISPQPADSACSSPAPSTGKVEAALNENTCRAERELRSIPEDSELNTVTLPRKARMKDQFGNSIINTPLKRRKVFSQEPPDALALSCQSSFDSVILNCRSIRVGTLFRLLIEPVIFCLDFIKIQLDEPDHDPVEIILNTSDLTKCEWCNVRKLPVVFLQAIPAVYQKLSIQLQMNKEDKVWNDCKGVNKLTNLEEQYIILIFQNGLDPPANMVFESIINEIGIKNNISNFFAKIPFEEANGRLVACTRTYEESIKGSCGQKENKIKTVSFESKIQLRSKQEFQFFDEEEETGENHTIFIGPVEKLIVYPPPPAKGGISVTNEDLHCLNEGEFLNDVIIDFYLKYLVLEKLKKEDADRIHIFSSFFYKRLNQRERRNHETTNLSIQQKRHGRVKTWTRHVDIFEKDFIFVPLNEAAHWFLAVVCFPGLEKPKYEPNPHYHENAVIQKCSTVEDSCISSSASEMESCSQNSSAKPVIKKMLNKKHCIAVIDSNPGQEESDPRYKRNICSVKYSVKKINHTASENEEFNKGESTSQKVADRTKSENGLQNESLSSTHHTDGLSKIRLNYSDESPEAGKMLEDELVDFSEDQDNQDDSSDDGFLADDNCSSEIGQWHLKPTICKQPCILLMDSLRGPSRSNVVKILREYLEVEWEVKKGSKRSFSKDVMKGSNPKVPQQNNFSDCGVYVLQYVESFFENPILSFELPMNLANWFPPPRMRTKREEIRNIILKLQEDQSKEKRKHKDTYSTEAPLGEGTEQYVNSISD

HEK293 = experiment: inhibitors of LMP1-driven NF-kB reporter, dose response, cell-based, HEK293, luciferase, cherry-pick (AID 588343); assay type: functional; details: Homo sapiens
Cytochrome P450 2C9 = Cytochrome P450 2C9 (Homo sapiens, UniProt P11712)
Sequence of Cytochrome P450 2C9 (P11712 whole entry): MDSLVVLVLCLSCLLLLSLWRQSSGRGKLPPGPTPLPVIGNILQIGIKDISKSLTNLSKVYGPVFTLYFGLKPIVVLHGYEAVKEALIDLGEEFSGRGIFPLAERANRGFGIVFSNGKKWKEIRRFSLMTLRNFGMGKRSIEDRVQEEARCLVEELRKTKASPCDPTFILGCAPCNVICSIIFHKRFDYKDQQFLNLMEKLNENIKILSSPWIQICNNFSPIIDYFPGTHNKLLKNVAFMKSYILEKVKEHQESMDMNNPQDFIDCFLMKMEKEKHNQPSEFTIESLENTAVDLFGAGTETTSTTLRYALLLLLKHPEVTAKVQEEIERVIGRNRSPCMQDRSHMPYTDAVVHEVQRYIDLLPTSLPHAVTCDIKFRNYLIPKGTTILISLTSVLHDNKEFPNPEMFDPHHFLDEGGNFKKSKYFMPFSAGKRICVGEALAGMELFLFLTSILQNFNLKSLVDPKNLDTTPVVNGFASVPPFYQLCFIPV

[4] = control 3'UTR Renilla luciferase suppression, dose response, counter-screen for Shn3 inhibitor project, cell-based, Clone20-Shn3RL, cherry-picked (AID 624133); assay type: functional
[5] = Shn3 3'UTR reporter inhibitors, dose response, cell-based, Clone20 osteoblasts, firefly luciferase, cherry-picked (AID 624132); assay type: functional;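 note: firefly luciferase luminescence from reporter carrying the Shn3 3'UTR in osteoblasts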
Protein skinhead-1 = target: T5, Protein skinhead-1 (Caenorhabditis elegans, UniProt P34707); assay type: functional
T5 sequence (P34707 whole entry): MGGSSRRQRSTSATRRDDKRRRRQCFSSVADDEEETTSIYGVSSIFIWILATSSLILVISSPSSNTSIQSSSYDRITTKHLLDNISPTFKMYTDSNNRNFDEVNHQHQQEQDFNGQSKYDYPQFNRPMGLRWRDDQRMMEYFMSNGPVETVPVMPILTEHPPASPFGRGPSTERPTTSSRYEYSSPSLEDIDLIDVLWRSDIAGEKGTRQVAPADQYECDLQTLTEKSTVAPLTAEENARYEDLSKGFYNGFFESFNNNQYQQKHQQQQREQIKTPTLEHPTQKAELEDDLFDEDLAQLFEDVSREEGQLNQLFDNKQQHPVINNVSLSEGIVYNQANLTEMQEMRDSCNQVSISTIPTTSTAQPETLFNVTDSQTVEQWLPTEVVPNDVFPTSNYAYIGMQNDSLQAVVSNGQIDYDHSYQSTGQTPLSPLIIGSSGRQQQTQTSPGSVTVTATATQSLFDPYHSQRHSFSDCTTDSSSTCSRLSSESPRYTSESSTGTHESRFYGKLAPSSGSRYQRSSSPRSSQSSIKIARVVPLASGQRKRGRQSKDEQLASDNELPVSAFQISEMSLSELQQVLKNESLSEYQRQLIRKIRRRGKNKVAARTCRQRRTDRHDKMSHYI

Q: With `O=C(Nc1cccs1)Nc1ccccc1Br` as the molecule, how does the IC50 [1] read?
A: 57.6 µM (active)

Q: What about the IC50 (Caspase-3) of the same molecule?
A: 20.3 µM (active)

Q: What about the IC50 [2] of the same molecule?
A: 8.26 µM (active)

Q: And the IC50 [3]?
A: 33.5 µM (active)

Q: With `Cc1cccc(CNc2ncnc3ccc(-c4ccoc4)cc23)c1` as the molecule, how does the AC50 (HEK293) read?
A: 35.1 µM (active)

Q: And the AC50 (Cytochrome P450 2C9)?
A: 1 µM (inconclusive)

Q: For `Cc1ccc(-c2nc3cccnc3o2)cc1NC(=O)COc1ccc(C(C)(C)C)cc1`, which AC50 [4] is on record?
A: 14.6 µM (active)

Q: And the AC50 [5]?
A: 10.8 µM (active)

Q: And the AC50 (HEK293)?
A: 36.3 µM (active)

Q: What about the IC50 (Protein skinhead-1) of the same molecule?
A: > 100 µM (inactive)
